pIC50: −log10 of the molar value. “Also recorded” adds a separate entry of the source. Read-outs that look alike come from different tables or passages of the source.
Legend:
[1] = system: rat hind foot carragheenin-induced oedema; experiment: Carragheenin-induced oedema test; assay type: in vivo; conditions: 3 h, read-out: percentage inhibition of the inflammation; for change in vivo at 25 mg/kg: 25 mg/kg oral; for change in vivo at 50 mg/kg: 50 mg/kg oral; for change in vivo at 100 mg/kg: 100 mg/kg oral
[2] = system: foreign-body (sponge) granuloma in rats; experiment: Experimental granuloma induced by foreign body, histological study; assay type: in vivo, Wistar rats; conditions: for histological study of the granuloma (inflammatory connective / granulation tissue): second experiment, day 8, Table XIa; for histological study of the granuloma: 8 days, Table XI
[3] = system: pain threshold of brewer's yeast inflamed rat hind foot; experiment: Randall and Sellitto's test (analgesic activity); assay type: in vivo; conditions: for change in vivo at 25 mg/kg: 25 mg/kg oral; for change in vivo at 25 mg/kg / change in vivo at 50 mg/kg / change in vivo at 100 mg/kg: read-out: percentage increase in the mean pain threshold; for change in vivo at 50 mg/kg: 50 mg/kg oral; for change in vivo at 100 mg/kg: 100 mg/kg oral; for ED50: po, analgesia, read-out: 50% active dose
Procedure, shortened: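 Rats had 0.1 ml 20% brewer's yeast suspension injected under the hind-foot plantar aponeurosis; compounds dosed orally by stomach tube 1 h before yeast. Pain threshold was the pressure eliciting foot withdrawal, read at the 4–6 h plateau; result is % increase in mean threshold versus untreated controls, 10 rats per group.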

thromboxane synthetase = experiment: TXB2 production in human platelet suspension (thromboxane synthetase); assay type: cell-based; conditions: human platelets, arachidonic acid 5 μg/ml, 37° C., read-out: IC50, inhibition of the production of TXB2
Description: The platelets are incubated with arachidonic acid (5 μg/ml) in the presence of increasing doses of test products (10^-6l M to 5×10^-5 M). Platelets stimulated by arachidonic acid (AA) manufacture a large amount of thromboxane A2 (TXA2), which can be measured radioimmunologically in the form of a stable metabolite TXB2.
The assay of the amount of TXB2 in the medium is performed after a 1- to 15- minute incubation at 37° C., the measurements being made in comparison with a control suspension which has not been incubated with the test products.
Results: These are expressed as IC50, that is to say as the concentration of the test product which permits 50% inhibition of the production of TXB2.

[4] = system: biosynthesis of leukotrienes B4 (LTB4), human polymorphonuclear leukocytes; experiment: Biosynthesis of LTB4, isomers and oxidized metabolites in human polymorphonuclear leukocytes; assay type: cell-based; conditions: Leukocyte
Procedure, shortened: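 Human polymorphonuclear leukocytes (5×10^6, used within 6 h of blood draw) preincubated 10 min at 37° C. with test product at 40 μM in DMSO, stimulated with 10 μM ionophore A 23187 in PBS pH 7.4. LTB4, its isomers and oxidized metabolites quantified by HPLC at 269 nm against PGB2 internal standard, as % inhibition or % increase.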

[5] = system: biosynthesis of leukotrienes C4 (LTC4), human polymorphonuclear leukocytes; experiment: LTC4 production in human polymorphonuclear leukocytes; assay type: cell-based; conditions: Leukocyte, 0.25 h, ionophore A 23187 5 μM, 15 min, 37° C., read-out: IC50, inhibition of the production of LTC4
Description: Human polymorphonuclear Leukocytes are stimulated by calcium ionophore A 23187 (Calbiochem, 5 μM), in the presence or absence of the test products.
After 15 minutes' incubation at 37° C., assay of the leukotrienes C4 (LTC4) is performed radioimmunologically.
The results are expressed as IC50, the concentration producing 50% inhibition of the production of LTC4, by comparison with a control suspension which has not been incubated in the presence of the test products.

[6] = second experiment, read-out: Percentage inhibition of LTB4 formation
[7] = first experiment, read-out: Isomers of LTB4: percentage inhibition (+ : percentage increase in the production)
[8] = first experiment, read-out: LTB4: percentage inhibition (+ : percentage increase in the production)
[9] = first experiment, read-out: Oxidized metabolites of LTB4: percentage inhibition (+ : percentage increase in the production)

Row | Structure (SMILES) | change in vivo at 25 mg/kg ([1]; second experiment, Table Xa) | change in vivo at 50 mg/kg ([1]; second experiment, Table Xa) | change in vivo at 100 mg/kg ([1]; second experiment, Table Xa) | histological study of the granuloma (inflammatory connective / granulation tissue) [2] | change in vivo at 25 mg/kg ([3]; second experiment, Table XIIa) | change in vivo at 50 mg/kg ([3]; second experiment, Table XIIa) | change in vivo at 100 mg/kg ([3]; second experiment, Table XIIa) | ED50 ([3]; second experiment, Table XIIa) | pIC50 (thromboxane synthetase) | inhibition at 40 µM [4, 6] | pIC50 [5] | inhibition at 40 µM [4, 7] | inhibition at 40 µM [4, 8] | inhibition at 40 µM [4, 9] | further results
1 | O=C(O)CCCCCCCCCCNS(=O)(=O)c1ccc(Cl)cc1C(O)c1ccccc1Cl (stereo not shown) [Compound 1796] | -45% | -48% | -55% | only slightly inflammatory | 50% | 55% | 58% | 25 mg/kg | 5.11 | 100% | 5.77 | – | – | – | –
2 | O=C(O)CCCCCCCCCCNS(=O)(=O)c1ccc(Cl)cc1C(=O)c1ccccc1 [Compound 1572, 11-(2-benzoyl-4-chlorobenzenesulphonamido)undecanoic acid] | – | – | – | – | – | – | – | – | 4.92 | – | – | 100% | 84% | 90% | change in vivo at 25 mg/kg ([1]; first experiment, Table X): -18%; change in vivo at 50 mg/kg ([1]; first experiment, Table X): -25%; change in vivo at 100 mg/kg ([1]; first experiment, Table X): -49%; histological study of the granuloma ([2]; 50 mg/kg oral): anti-inflammatory activity is exhibited; histological study of the granuloma ([2]; 100 mg/kg oral): distinct; change in vivo at 25 mg/kg ([3]; first experiment, Table XII): 18%; change in vivo at 50 mg/kg ([3]; first experiment, Table XII): 30%; change in vivo at 100 mg/kg ([3]; first experiment, Table XII): 55%
3 | O=C(O)CCCCCCCCCCCNS(=O)(=O)c1ccc(Cl)c(C(=O)c2ccccc2)c1 [Compound 1736, 12-(3-benzoyl-4-chlorobenzenesulphonamido)dodecanoic acid] | -45% | -48% | -55% | Very distinct slowing in the formation | 52% | 58% | 60% | 25 mg/kg | 5.21 | 100% | 5.52 | – | – | – | –
4 | O=C(O)CCCCCCCCCCNS(=O)(=O)c1ccc(Cl)cc1C(=O)c1ccccc1Cl [Compound 1574, 11-[2-(2-chlorobenzoyl)-4-chlorobenzenesulphonamido]undecanoic acid] | -40% | -43% | -45% | very distinct rarefaction | 45% | 50% | 50% | 50 mg/kg | 5.10 | 95% | 5.52 | 100% | 95% | 100% | –
5 | O=C(O)CCCCCCCCCCNS(=O)(=O)c1ccc(Cl)cc1Cc1ccccc1Cl [Compound 1797] | -45% | -48% | -55% | Granuloma poorly developed; also recorded: slightly inflammatory | 50% | 55% | 58% | – | 5.30 | 100% | 6.00 | – | – | – | –

Source: US4980349A, “Sulphonamides derived from diarylmethanes, the processes for preparing them and pharmaceutical compositions containing them” (SANOFI, priority 1986, dated 1990)
